Measured values published in the supplement of paper PMC10307832.

Legend:
Experiment in all cases: relative viability (nuclei count vs DMSO), 5 days (fraction); higher = more cells survive
[1] = compound: C1CNCCC1C2=CC(=NN2)C3=CC=NC=C3 + NC(=O)Nc1cc(-c2cccc(F)c2)sc1C(=O)N[C@H]1CCCNC1 [AZD7762] (partner 0.2 µM)
Outline: (§1)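 Medians of duplicate plates are given as relative viability. That measure is the nuclei count in treated wells divided by the count in vehicle wells. Counts were taken on 4× images of lung cancer cell lines in 1536-well plates, 5 days after pin-tool dosing the day after seeding with one drug alone or a fixed anchor-drug dose plus five library-drug doses (not always all listed) in √10 steps.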

[2] = compound: C1CNCCC1C2=CC(=NN2)C3=CC=NC=C3 + Cc1nc(Nc2ncc(C(=O)Nc3c(C)cccc3Cl)s2)cc(N2CCN(CCO)CC2)n1 [Dasatinib] (partner 0.075 µM)
Outline: as §1

Tanzisertib + Olaparib = compound: O[C@H]1CC[C@H](Nc2ncc3nc(Nc4c(F)cc(F)cc4F)n([C@H]4CCOC4)c3n2)CC1 [Tanzisertib] + O=C(c1cc(Cc2n[nH]c(=O)c3ccccc23)ccc1F)N1CCN(C(=O)C2CC2)CC1 [Olaparib] (partner 8 µM)
Outline: as §1

[3] = compound: C[C@@H](N)c1ccc(C(=O)Nc2ccnc3[nH]ccc23)cc1 + NC(=O)Nc1cc(-c2cccc(F)c2)sc1C(=O)N[C@H]1CCCNC1 [AZD7762] (partner 0.2 µM)
Outline: as §1

| Cell Line | relative viability ([1]; first compound 0.08 µM) | relative viability ([1]; first compound 0.8 µM) | relative viability ([1]; first compound 2.53 µM) | relative viability ([1]; first compound 8 µM) | relative viability ([2]; first compound 0.08 µM) | relative viability ([2]; first compound 0.8 µM) | relative viability ([2]; first compound 2.53 µM) | relative viability ([2]; first compound 8 µM) | relative viability (Tanzisertib + Olaparib; first compound 0.08 µM) | relative viability (Tanzisertib + Olaparib; first compound 0.253 µM) | relative viability (Tanzisertib + Olaparib; first compound 0.8 µM) | relative viability (Tanzisertib + Olaparib; first compound 2.53 µM) | relative viability (Tanzisertib + Olaparib; first compound 8 µM) | relative viability ([3]; first compound 0.04 µM) | relative viability ([3]; first compound 0.1265 µM) | relative viability ([3]; first compound 0.4 µM) | relative viability ([3]; first compound 1.265 µM) | relative viability ([3]; first compound 4 µM) |
| --- | --- | --- | --- | --- | --- | --- | --- | --- | --- | --- | --- | --- | --- | --- | --- | --- | --- | --- |
| NCI-H2170 | 0.746 | 0.909 | 0.949 | 0.897 | 0.536 | 0.52 | 0.574 | 0.643 | 0.669 | 0.569 | 0.601 | 0.604 | 0.53 | 0.972 | 0.935 | 1.05 | 0.827 | 0.832 |
| HCC-366 | 0.271 | 0.361 | 0.287 | 0.345 | 0.405 | 0.898 | 0.618 | 0.594 | – | 0.319 | 0.36 | 0.353 | 0.308 | 0.174 | 0.32 | 0.434 | 0.588 | 0.359 |
| NCI-H2347 | 0.763 | 0.494 | 0.745 | 0.76 | 0.352 | 0.288 | 0.307 | 0.332 | 0.628 | 0.626 | 0.593 | 0.677 | 0.766 | 0.825 | 0.603 | 0.973 | 0.878 | 1.01 |
| COR-L 105 | – | – | – | – | 0.332 | 0.364 | 0.382 | 0.368 | 0.729 | 0.631 | 0.792 | 0.726 | 0.816 | – | – | – | – | – |
| 201T | 0.645 | 0.65 | 0.654 | 0.562 | 0.62 | 0.561 | 0.602 | 0.602 | 0.854 | 0.902 | 0.855 | 0.848 | 0.864 | 0.644 | 0.678 | 0.668 | 1.01 | 0.783 |
| NCI-H2126 | 1.01 | 1.04 | 1.01 | 1.01 | 0.504 | 0.613 | 0.655 | 0.661 | 0.913 | 0.919 | 0.987 | 0.873 | 0.938 | 1.01 | 1.04 | 1.17 | 0.982 | 1.12 |
| LC-2-ad | 0.84 | 0.859 | 0.872 | 0.87 | – | 0.647 | 0.761 | 0.739 | 0.68 | 0.743 | 0.706 | 0.714 | 0.794 | 0.763 | 0.787 | 0.823 | 0.787 | 0.599 |
| NCI-H2085 | 0.999 | – | 1.03 | 1 | 0.244 | – | 0.296 | 0.215 | – | 0.763 | 0.745 | 0.803 | 0.76 | 0.947 | 0.914 | 0.96 | 1.13 | 1.09 |
| NCI-H358 | 0.487 | 0.626 | 0.553 | 0.54 | 0.118 | 0.16 | 0.149 | 0.143 | 0.623 | 0.547 | 0.586 | 0.583 | 0.492 | 0.605 | 0.47 | 0.485 | 0.478 | 0.472 |
| H3255 | 0.954 | 0.835 | 1.12 | 0.967 | 0.352 | 0.378 | 0.369 | 0.488 | 0.611 | 0.521 | 0.661 | 0.62 | 0.481 | 0.929 | 1.07 | 1.11 | 1.07 | 0.724 |
